Assay results taken from patent US20070010671A1, “Novel quinazoline derivatives and methods of treatment related to the use thereof” (priority 2003, published 2007).

Target: MCH receptor (Homo sapiens, UniProt Q99705)
Assay: High throughput functional screening FLIPR/FDSS6000: inhibition of MCH-evoked intracellular Ca2+ changes
Type: cell-based
Conditions: class by percent of control at 10^-7 M or IC50
Summary of the method: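 Antagonism is measured as inhibition of the intracellular calcium rise triggered by 50 nM MCH in cells bearing a constitutively active, non-endogenous form of the receptor. Cells are dye-loaded with Fluo4-AM and exposed to compound for 3 min at 37° C before agonist addition.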

Row | Compound | class
1 | Cc1cc(Br)cc(C)c1NC(=O)NC[C@H]1CC[C@@H](Nc2nc(N(C)C)c3ccccc3n2)CC1 [compound 753, N-(4-bromo-2,6-dimethylphenyl)-N′-[(cis-4-{[4-(dimethylamino)quinazolin-2-yl]amino}cyclohexyl)methyl]urea] | 1 (Class 1: The value of percent of control at 10^−7 M was less than 40% or the value of IC50 was less than 50 nM.)
2 | Cc1cc(Br)ccc1NC(=O)NC[C@H]1CC[C@@H](Nc2nc(N(C)C)c3ccccc3n2)CC1 [compound 754] | 2 (Class 2: The value of percent of control at 10^−7 M was from 40% to 60% or the value of IC50 was from 50 nM to 200 nM.)
3 | CN(C)c1nc(N[C@H]2CC[C@@H](CNC(=O)Nc3ccc4c(c3)C(F)(F)OC(F)(F)O4)CC2)nc2ccccc12 [compound 755, N-[(cis-4-{[4-(dimethylamino)quinazolin-2-yl]amino}-cyclohexyl)methyl]-N′-(2,2,4,4,-tetrafluoro-4H-1,3-benzodioxin-6-yl)urea] | 3 (Class 3: The value of percent of control at 10^−7 M was more than 60% or the value of IC50 was more than 200 nM.)
4 | CN(C)c1nc(N[C@H]2CC[C@@H](CNC(=O)NCCc3cccs3)CC2)nc2ccccc12 [compound 757] | 3 (Class 3: The value of percent of control at 10^−7 M was more than 60% or the value of IC50 was more than 200 nM.)
5 | CN(C)c1nc(N[C@H]2CC[C@@H](CNC(=O)Nc3ccc4c(c3)OCCO4)CC2)nc2ccccc12 [compound 758] | 3 (Class 3: The value of percent of control at 10^−7 M was more than 60% or the value of IC50 was more than 200 nM.)
6 | CC(C)c1cc(Br)c(NC(=O)NC[C@H]2CC[C@@H](Nc3nc(N(C)C)c4ccccc4n3)CC2)c(Br)c1 [compound 759, N-(2,6-dibromo-4-isopropylphenyl)-N′-[(cis-4-{[4-(dimethylamino)quinazolin-2-yl]amino}cyclohexyl)methyl]urea] | 2 (Class 2: The value of percent of control at 10^−7 M was from 40% to 60% or the value of IC50 was from 50 nM to 200 nM.)
7 | CN(C)c1nc(N[C@H]2CC[C@@H](CNC(=O)Nc3ccccc3C#N)CC2)nc2ccccc12 [compound 760] | 3 (Class 3: The value of percent of control at 10^−7 M was more than 60% or the value of IC50 was more than 200 nM.)
8 | CN(C)c1nc(N[C@H]2CC[C@@H](CNC(=O)Nc3cccs3)CC2)nc2ccccc12 [compound 761] | 3 (Class 3: The value of percent of control at 10^−7 M was more than 60% or the value of IC50 was more than 200 nM.)
9 | COc1ccc(NC(=O)NC[C@H]2CC[C@@H](Nc3nc(N(C)C)c4ccccc4n3)CC2)cc1OC1CCCC1 [compound 762] | 3 (Class 3: The value of percent of control at 10^−7 M was more than 60% or the value of IC50 was more than 200 nM.)
10 | CN(C)c1nc(N[C@H]2CC[C@@H](CNC(=O)Nc3ccc4c(c3)OCCCO4)CC2)nc2ccccc12 [compound 763] | 3 (Class 3: The value of percent of control at 10^−7 M was more than 60% or the value of IC50 was more than 200 nM.)
11 | CN(C)c1nc(N[C@H]2CC[C@@H](CNC(=O)Nc3ccsc3)CC2)nc2ccccc12 [compound 764, N-[(cis-4-{[4-(dimethylamino)quinazolin-2-yl]amino}cyclohexyl)methyl]-N′-3-thienylurea] | 2 (Class 2: The value of percent of control at 10^−7 M was from 40% to 60% or the value of IC50 was from 50 nM to 200 nM.)
12 | CN(C)c1nc(N[C@H]2CC[C@@H](CNC(=O)Nc3ccc(C(C)(C)C)cc3)CC2)nc2ccccc12 [compound 765] | 3 (Class 3: The value of percent of control at 10^−7 M was more than 60% or the value of IC50 was more than 200 nM.)
13 | CCCCc1ccc(NC(=O)NC[C@H]2CC[C@@H](Nc3nc(N(C)C)c4ccccc4n3)CC2)c(C)c1 [compound 766] | 3 (Class 3: The value of percent of control at 10^−7 M was more than 60% or the value of IC50 was more than 200 nM.)
14 | Cc1cc(NC(=O)NC[C@H]2CC[C@@H](Nc3nc(N(C)C)c4ccccc4n3)CC2)c(C(F)(F)F)o1 [compound 767, N-[(cis-4-{[4-(dimethylamino)quinazolin-2-yl]amino}cyclohexyl)methyl]-N′-[5-methyl-2-(trifluoromethyl)-3-furyl]urea] | 1 (Class 1: The value of percent of control at 10^−7 M was less than 40% or the value of IC50 was less than 50 nM.)
15 | CN(C)c1nc(N[C@H]2CC[C@@H](CNC(=O)Nc3ccc(-c4ccccc4)s3)CC2)nc2ccccc12 [compound 768] | 3 (Class 3: The value of percent of control at 10^−7 M was more than 60% or the value of IC50 was more than 200 nM.)
16 | CN(C)c1nc(N[C@H]2CC[C@@H](CNC(=O)Nc3cc(F)cc4c3OCOC4)CC2)nc2ccccc12 [compound 769, N-[(cis-4-{[4-(dimethylamino)quinazolin-2-yl]amino}cyclohexyl)methyl]-N′-(6-fluoro-4H-1,3-benzodioxin-8-yl)urea] | 2 (Class 2: The value of percent of control at 10^−7 M was from 40% to 60% or the value of IC50 was from 50 nM to 200 nM.)
17 | CN(C)c1nc(N[C@H]2CC[C@@H](CNC(=O)NC3CCN(C(=O)OCc4ccccc4)CC3)CC2)nc2ccccc12 [compound 770] | 3 (Class 3: The value of percent of control at 10^−7 M was more than 60% or the value of IC50 was more than 200 nM.)
18 | Cc1ccc2nc(-c3ccc(NC(=O)NC[C@H]4CC[C@@H](Nc5nc(N(C)C)c6ccccc6n5)CC4)cc3)sc2c1 [compound 771] | 3 (Class 3: The value of percent of control at 10^−7 M was more than 60% or the value of IC50 was more than 200 nM.)
19 | CN(C)c1ccc(NC(=O)NC[C@H]2CC[C@@H](Nc3nc(N(C)C)c4ccccc4n3)CC2)cc1 [compound 772] | 3 (Class 3: The value of percent of control at 10^−7 M was more than 60% or the value of IC50 was more than 200 nM.)
20 | CN(C)c1nc(N[C@H]2CC[C@@H](CNC(=O)Nc3cc(Cl)nc(Cl)c3)CC2)nc2ccccc12 [compound 773] | 3 (Class 3: The value of percent of control at 10^−7 M was more than 60% or the value of IC50 was more than 200 nM.)
21 | Cc1noc(C)c1NC(=O)NC[C@H]1CC[C@@H](Nc2nc(N(C)C)c3ccccc3n2)CC1 [compound 774, N-[(cis-4-{[4-(dimethylamino)quinazolin-2-yl]amino}cyclohexyl)methyl]-N′-(3,5-dimethylisoxazol-4-yl)urea] | 2 (Class 2: The value of percent of control at 10^−7 M was from 40% to 60% or the value of IC50 was from 50 nM to 200 nM.)
22 | Cc1noc(-c2ccccc2)c1NC(=O)NC[C@H]1CC[C@@H](Nc2nc(N(C)C)c3ccccc3n2)CC1 [compound 775] | 1 (Class 1: The value of percent of control at 10^−7 M was less than 40% or the value of IC50 was less than 50 nM.)
23 | Cc1onc(-c2ccccc2)c1NC(=O)NC[C@H]1CC[C@@H](Nc2nc(N(C)C)c3ccccc3n2)CC1 [compound 776] | 2 (Class 2: The value of percent of control at 10^−7 M was from 40% to 60% or the value of IC50 was from 50 nM to 200 nM.)
24 | C#CCNC(=S)NC[C@H]1CC[C@@H](Nc2nc(N(C)C)c3ccccc3n2)CC1 [compound 777] | 3 (Class 3: The value of percent of control at 10^−7 M was more than 60% or the value of IC50 was more than 200 nM.)
25 | CN(C)c1nc(N[C@H]2CC[C@@H](CNC(=S)Nc3ccc(S(=O)(=O)N4CCCCC4)cc3)CC2)nc2ccccc12 [compound 778] | 3 (Class 3: The value of percent of control at 10^−7 M was more than 60% or the value of IC50 was more than 200 nM.)
